Experimental data taken from PubChem BioAssay (NCI).
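Exposure lasted 48 hours, with cells grown in 96-well plates and compounds tested at five concentrations. The concentration for full growth arrest is given as TGI.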

What was measured:
Experiment in all cases: inhibition of tumour cell growth, NCI panel, 48 h
HT29 colon = test system: HT29 colon
SN12C renal = test system: SN12C renal
UACC-257 melanoma = test system: UACC-257 melanoma
OVCAR-3 ovarian = test system: OVCAR-3 ovarian
U251 CNS = test system: U251 CNS
M19-MEL melanoma = test system: M19-MEL melanoma
UACC-62 melanoma = test system: UACC-62 melanoma
CCRF-CEM leukemia = test system: CCRF-CEM leukemia
KM20L2 colon = test system: KM20L2 colon
K-562 leukemia = test system: K-562 leukemia
SK-MEL-2 melanoma = test system: SK-MEL-2 melanoma
HCT-116 colon = test system: HCT-116 colon
OVCAR-5 ovarian = test system: OVCAR-5 ovarian
LXFL 529 NSCLC = test system: LXFL 529 NSCLC
KM12 colon = test system: KM12 colon
HOP-62 NSCLC = test system: HOP-62 NSCLC
TK-10 renal = test system: TK-10 renal
HOP-92 NSCLC = test system: HOP-92 NSCLC
OVCAR-4 ovarian = test system: OVCAR-4 ovarian
NCI-H522 lung = test system: NCI-H522 lung

Measured: TGI

O=C1CCC(c2ccccc2)=NN1c1nsc2ccccc12
> 100 µM: HT29 colon | SN12C renal | UACC-257 melanoma | OVCAR-3 ovarian | U251 CNS | M19-MEL melanoma | UACC-62 melanoma | CCRF-CEM leukemia | KM20L2 colon | K-562 leukemia | SK-MEL-2 melanoma | HCT-116 colon | OVCAR-5 ovarian | LXFL 529 NSCLC | KM12 colon | HOP-62 NSCLC | TK-10 renal | HOP-92 NSCLC | OVCAR-4 ovarian

COc1cccc(N2C(Cl)C(=O)C2c2c[nH]c3ccccc23)c1 (centres undefined)
> 100 µM: HT29 colon | SN12C renal | UACC-257 melanoma | OVCAR-3 ovarian | U251 CNS | M19-MEL melanoma | UACC-62 melanoma | CCRF-CEM leukemia | KM20L2 colon | K-562 leukemia | SK-MEL-2 melanoma | HCT-116 colon | OVCAR-5 ovarian | LXFL 529 NSCLC | KM12 colon | HOP-62 NSCLC | TK-10 renal | HOP-92 NSCLC | NCI-H522 lung | OVCAR-4 ovarian
